# Results reported in ChEMBL document CHEMBL1134424, “Synthesis and evaluation of caffeic acid amides as antioxidants” (Bioorg Med Chem Lett, 2001).
# Test: Evaluated for the antioxidant property by measuring the inhibition of microsomal lipid peroxidation
# Assay type: functional
row,IC50,SMILES
1,850 nM,O=C(/C=C/c1ccc(O)c(O)c1)NCCc1ccccc1 [CAFFEIC ACID PHENETHYL AMIDE]
2,1020 nM,O=C(/C=C/c1ccc(O)c(O)c1)NCc1ccccc1
3,3200 nM,COC(=O)C(Cc1ccc(O)cc1)NC(=O)/C=C/c1ccc(O)c(O)c1 (stereo not given)
4,3400 nM,CC(C)=CCNC(=O)/C=C/c1ccc(O)c(O)c1
5,370 nM,O=C(/C=C/c1ccc(O)c(O)c1)Nc1cccc(O)c1
6,3300 nM,O=C(O)/C=C/c1ccc(O)c(O)c1 [CAFFEIC ACID]
7,2200 nM,C=CCNC(=O)/C=C/c1ccc(O)c(O)c1
8,6100 nM,O=C(/C=C/c1ccc(O)c(O)c1)N1CCOCC1
9,3900 nM,CC(C)NC(=O)/C=C/c1ccc(O)c(O)c1
10,3600 nM,O=C(/C=C/c1ccc(O)c(O)c1)N1CCCCC1
11,1400 nM,CC(C)CCNC(=O)/C=C/c1ccc(O)c(O)c1
12,2200 nM,NC(=O)/C=C/c1ccc(O)c(O)c1
13,630 nM,O=C(/C=C/c1ccc(O)c(O)c1)Nc1ccc(O)cc1
14,29100 nM,CC(C)=CCNC(=O)/C=C/c1ccc(O)cc1
15,380 nM,O=C(/C=C/c1ccc(O)c(O)c1)Nc1ccccc1
16,100000 nM,O=C(O)/C=C/c1ccc(O)cc1 [COUMARIC ACID]
17,290 nM,O=C(/C=C/c1ccc(O)c(O)c1)Nc1ccccc1O
18,2400 nM,O=C(/C=C/c1ccc(O)c(O)c1)N1CCCC1
19,4100 nM,CCN(CC)C(=O)/C=C/c1ccc(O)c(O)c1
20,2700 nM,CCNC(=O)/C=C/c1ccc(O)c(O)c1
21,590 nM,O=C(/C=C/c1ccc(O)c(O)c1)NCCc1ccc(O)c(O)c1
22,6000 nM,CNC(=O)/C=C/c1ccc(O)c(O)c1
23,2200 nM,CC(C)CNC(=O)/C=C/c1ccc(O)c(O)c1
24,2800 nM,Cc1c(C)c2c(c(C)c1O)CCC(C)(C(=O)O)O2 (stereo not given) [TROLOX]

row,SMILES,IC50
1,O=c1c(O)c(-c2ccc(O)c(O)c2)oc2cc(O)cc(O)c12 [QUERCETIN],950 nM
